The results in this text go back to US5814634A, “Alkylenediamine derivative anti-ulcer drug and antibacterial drug” (Shiseido Co. Ltd., priority 1996, dated 1998).

In this data set the test system is gastric mucosa. As to the kind of experiment: PD: Gastric Mucosal Integrity Test (gastric mucosal potential difference). Details: key: 5: Same as the control with no recognizable damage at all.; 4: Though a slight PD-decreasing tendency suggesting a slight possibility of mucosal damage is found, there is no problem.; 3: Though a weak decrease in PD and a possibility of a weak mucosal damage is recognized, there is no substantial problem.; 2: Medium degree of decrease in PD is found and a mucosal damage is recognized.; 1: Heavy degree of decrease in PD is found and a remarkable mucosal damage is recognized. Type of data set: in vivo, rat (male Crj:SD). As to conditions: 100 mg/kg into chamber, rats, 60 minutes. The procedure: PD: Gastric Mucosal Integrity Test
In this case, since the sample compound has a necrotizing effect, it is inappropriate as an anti-ulcer medicament.
Therefore, the gastric mucosal potential difference (PD), which reflects the integrity of the gastric mucosa, is measured so as to confirm that the sample compound has no damaging effect on gastric mucosa, which is toxicity at gastric mucosal level.
Male Crj:SD rats (7 to 8-week-old) were fasted overnight, but allowed free access to water, and then, under urethane anesthesia (1.25 g/kg, i.p.), fixed to a cork board on its back. The abdomen of each rat was incised, and a small incision was made in the forestomach. Then, the inside of the stomach was washed with physiological saline heated at 37° C. From the forestomach, along the greater curvature thereof, the stomach was incised without damaging blood vessels. After the height of the cork board was adjusted on a jack, the stomach was mounted on ex vivo chamber. The area of the gastric mucosa exposed to the inside of this chamber was 2.5 cm^2. The inside of the chamber was perfused with physiological saline warmed at 37° C. by micro tube pump. By using an agar bridge containing 3M KCl, the potential difference between the chamber and the abdominal cavity was measured by a PD meter. Here, the rectal temperature was measured to control the body temperature during the experiment. After the PD was sufficiently stabilized, the perfusate was stopped and then 100 mg/10 ml/kg of the sample compound dissolved or suspended in an aqueous solution of 0.5% sodium carboxymethyl cellulose or 0.05% Tween 80 was administered into the chamber, while PD was recorded for 60 minutes. To a control, the vehicle was administered.
The change in PD during 60 minutes after the administration of 100 mg/kg of the sample compound was collectively studied and, with reference to the positive control, classified into 5 levels as follows:
5: Same as the control with no recognizable damage at all.
3: Though a weak decrease in PD and a possibility of a weak mucosal damage is recognized, there is no substantial problem.
2: Medium degree of decrease in PD is found and a mucosal damage is recognized.
1: Heavy degree of decrease in PD is found and a remarkable mucosal damage is recognized.
As to `CC(C)=CCOc1ccc(C(=O)NCCN2CCOCC2)cc1` [Example 28], the “PD: change in gastric mucosal potential difference, 5 levels” value is reported as 5.

For the molecule `CC(C)=CCC/C(C)=C/COc1ccc(C(=O)NCCN2CCOCC2)cc1` [Example 31], the “PD: change in gastric mucosal potential difference, 5 levels” value worked out at 3.

On to `CC(C)=CCOc1ccc(C(=O)NCCN2CCOCC2)cc1OCC=C(C)C` [Example 35], for which the “PD: change in gastric mucosal potential difference, 5 levels” value was 5.
